This passage reports DC50 and IC50 results from EP4796536A1, “CRYSTAL FORMS OF COMPOUND HAVING FUSED FIVE- AND SIX-MEMBERED RINGS, PREPARATION METHOD THEREFOR, AND USE THEREOF” (Hangzhou Polymed Biopharmaceuticals, Inc., priority 2023, dated 2025).

For assay [1], the target named is T1, IRAK4 protein in THP-1 cells (Homo sapiens, UniProt Q9NWZ3).
T1 construct: endogenous in cells; host or cells: THP-1
T1 sequence (Q9NWZ3 1-460): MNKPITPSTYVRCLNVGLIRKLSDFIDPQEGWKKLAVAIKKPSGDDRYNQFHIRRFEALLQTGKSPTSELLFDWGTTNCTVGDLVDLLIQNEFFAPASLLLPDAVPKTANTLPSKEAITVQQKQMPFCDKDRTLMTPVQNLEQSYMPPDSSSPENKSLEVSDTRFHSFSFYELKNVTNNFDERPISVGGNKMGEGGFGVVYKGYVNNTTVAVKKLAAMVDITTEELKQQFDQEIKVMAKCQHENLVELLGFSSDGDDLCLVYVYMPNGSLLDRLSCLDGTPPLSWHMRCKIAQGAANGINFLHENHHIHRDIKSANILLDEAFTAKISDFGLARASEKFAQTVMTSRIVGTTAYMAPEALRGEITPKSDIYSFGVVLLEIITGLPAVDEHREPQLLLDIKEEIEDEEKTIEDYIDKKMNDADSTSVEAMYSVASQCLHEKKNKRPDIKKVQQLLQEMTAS
Nature of the assay: IRAK4 protein degradation in THP-1 cells by Western Blot. The assay is classed as cell-based. As to conditions: 24 hours after administration. As to the method:
2.2.2.1 Based on the experimental method of immunoblot, i.e., Western Blot, THP-1 cell samples processed by gel electrophoresis were stained with specific antibodies, and the degrading activity of the compound on the IRAK4 protein in THP-1 cells was determined by analyzing the position and depth of staining. The detection concentrations of the compound were 0 µM, 0.3 µM, 1 µM, and 3 µM, and the compound was used to treat the cells for 8 hours, 16 hours, 24 hours, and 48 hours. In this case, glyceraldehyde-3-phosphate dehydrogenase (GAPDH) was the internal reference protein for the assay.
• Running buffer: 50 mL of MOPS SDS Running Buffer (20X) and 50 mL of 20× TBS Tween-20 buffer were diluted to 1L with deionized water as running buffer; • 5% skim milk (w/v): 5% skim milk was prepared by diluting 2.5 g of skim milk with 50 mL of 1× TBS Tween-20 buffer; • 5% BSA (w/v): 5% BSA was prepared by diluting 2.5 g of BSA with 50 mL of 1× TBS Tween-20 buffer; • Anti-IRAK4 antibody was diluted at 1:1000 with 5% BSA into a primary antibody working solution; • Goat Anti-Rabbit IgG H&L (HRP) was diluted at 1:2000 with 5% BSA into a secondary antibody working solution; • Goat Anti-Mouse IgG H&L (HRP) was diluted at 1:2000 with 5% BSA into a secondary antibody working solution. […]
Background: In western blotting, separated proteins are transferred to a membrane and probed.

Another assay has as its target T2, IRAK4 kinase (Homo sapiens, UniProt Q9NWZ3).
T2 construct: purchased Carna 09-145
T2 sequence (Q9NWZ3 1-460): T1 sequence (Q9NWZ3 1-460)
Nature of the assay: Inhibition of IRAK4 kinase activity, fluorescence microfluidic mobility assay. Format: biochemical. The conditions noted are these: IRAK4 6 nM, ATP 10 µM, substrate peptide FAM-P8 3 µM. The procedure:
Based on the experimental method of fluorescence microfluidic mobility assay, the IC50 value of competitive binding of IRAK4 kinase to ATP by the compound was determined. The initial detection concentration of the compound was 10 µM, which was 4-fold serially diluted to […] and assayed in duplicate. In this case, commercially available staurosporine was the standard control for the assay.
• 1) IRAK4 kinase was dissolved in kinase buffer (50 mM HEPES pH 7.5, 10 mM MgCl2, 2 mM DTT, and 0.01% Brij-35) at a final concentration of 6 nM. • 2) The substrate peptide FAM-P8 and ATP were dissolved in the above kinase buffer, and the final concentrations of the substrate peptide FAM-P8 and ATP for IRAK4 were 3 µM and 10 µM, respectively. • 3) Dilution of compound: the compound was first diluted to 50 µM, and then 4-fold serially diluted with DMSO. […] After incubation at 28°C for 1 hour, 25 µL of stop solution (100 mM HEPES pH 7.5, 50 mM EDTA, 0.2% Coating Reagent #3, and 0.015% Brij-35) was added to each well to terminate the reaction. • 5) Data reading: CaliperEZ Reader II instrument was used to read the conversion rate data. […]

`COc1cc2nn(C3CC4(CCN(C(=O)C5CCN(c6ccc7c(c6)C(=O)N(C6CCC(=O)NC6=O)C7=O)CC5)CC4)C3)cc2cc1NC(=O)c1cccc(C(F)(F)F)n1` (centres unmarked) [X] displayed a DC50 in assay [1] of 4.02 nM. The compound also returned an IC50 on IRAK4 kinase of 26 nM.

As a reminder, the DC50 is the midpoint of the concentration-degradation curve. Low readings indicate a more potent degrader, high ones a less potent degrader. Usually IC50 stands for the concentration at which inhibition is half-maximal. Low readings indicate greater potency, high ones weaker potency.
